The source of these data is publication PMC4852132 (Biochemistry, 2016).

Several values for one entry are separate records, joined by “and”; a condition that tells them apart may be missing. Equal values may be shown once. Read-outs that look alike come from different tables or passages of the source.

Assay [1] addresses PDHc-h (Homo sapiens, UniProt P08559+P11177). As to the kind of experiment: Overall PDHc-h activity by formation of NADH at 340 nm. The format is biochemical.
Assay [2] deals with T1, E1p-h (Homo sapiens, UniProt P08559+P11177).
T1 sequence (P08559 30-390): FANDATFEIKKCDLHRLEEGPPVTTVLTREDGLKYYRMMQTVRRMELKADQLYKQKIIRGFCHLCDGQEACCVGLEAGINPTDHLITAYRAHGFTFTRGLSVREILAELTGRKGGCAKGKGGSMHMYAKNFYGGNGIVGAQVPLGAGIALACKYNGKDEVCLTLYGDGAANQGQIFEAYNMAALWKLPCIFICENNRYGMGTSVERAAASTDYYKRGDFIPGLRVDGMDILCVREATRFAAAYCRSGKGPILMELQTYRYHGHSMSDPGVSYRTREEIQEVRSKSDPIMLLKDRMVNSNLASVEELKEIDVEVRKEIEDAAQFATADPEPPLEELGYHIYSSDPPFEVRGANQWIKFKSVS
T1 sequence (P11177 31-359): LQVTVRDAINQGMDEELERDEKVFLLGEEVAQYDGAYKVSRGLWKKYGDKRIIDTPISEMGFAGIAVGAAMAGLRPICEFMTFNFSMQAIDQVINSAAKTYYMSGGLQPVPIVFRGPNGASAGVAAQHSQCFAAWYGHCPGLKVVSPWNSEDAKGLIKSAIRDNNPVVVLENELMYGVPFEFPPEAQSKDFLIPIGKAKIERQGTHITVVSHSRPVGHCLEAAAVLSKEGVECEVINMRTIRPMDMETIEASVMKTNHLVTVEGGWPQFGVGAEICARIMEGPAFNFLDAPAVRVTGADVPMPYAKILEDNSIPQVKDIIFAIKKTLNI
As to the kind of experiment: E1p-h specific activity by rate of reduction of DCPIP. It is filed as biochemical. Conditions: for E1p-h specific activity, percent of that with ThDP: cofactor 0.2 or 0.5 mM.

For assay [3], the target named is T2, OGDHc-h (Homo sapiens, UniProt Q02218).
T2 sequence (Q02218 41-1023): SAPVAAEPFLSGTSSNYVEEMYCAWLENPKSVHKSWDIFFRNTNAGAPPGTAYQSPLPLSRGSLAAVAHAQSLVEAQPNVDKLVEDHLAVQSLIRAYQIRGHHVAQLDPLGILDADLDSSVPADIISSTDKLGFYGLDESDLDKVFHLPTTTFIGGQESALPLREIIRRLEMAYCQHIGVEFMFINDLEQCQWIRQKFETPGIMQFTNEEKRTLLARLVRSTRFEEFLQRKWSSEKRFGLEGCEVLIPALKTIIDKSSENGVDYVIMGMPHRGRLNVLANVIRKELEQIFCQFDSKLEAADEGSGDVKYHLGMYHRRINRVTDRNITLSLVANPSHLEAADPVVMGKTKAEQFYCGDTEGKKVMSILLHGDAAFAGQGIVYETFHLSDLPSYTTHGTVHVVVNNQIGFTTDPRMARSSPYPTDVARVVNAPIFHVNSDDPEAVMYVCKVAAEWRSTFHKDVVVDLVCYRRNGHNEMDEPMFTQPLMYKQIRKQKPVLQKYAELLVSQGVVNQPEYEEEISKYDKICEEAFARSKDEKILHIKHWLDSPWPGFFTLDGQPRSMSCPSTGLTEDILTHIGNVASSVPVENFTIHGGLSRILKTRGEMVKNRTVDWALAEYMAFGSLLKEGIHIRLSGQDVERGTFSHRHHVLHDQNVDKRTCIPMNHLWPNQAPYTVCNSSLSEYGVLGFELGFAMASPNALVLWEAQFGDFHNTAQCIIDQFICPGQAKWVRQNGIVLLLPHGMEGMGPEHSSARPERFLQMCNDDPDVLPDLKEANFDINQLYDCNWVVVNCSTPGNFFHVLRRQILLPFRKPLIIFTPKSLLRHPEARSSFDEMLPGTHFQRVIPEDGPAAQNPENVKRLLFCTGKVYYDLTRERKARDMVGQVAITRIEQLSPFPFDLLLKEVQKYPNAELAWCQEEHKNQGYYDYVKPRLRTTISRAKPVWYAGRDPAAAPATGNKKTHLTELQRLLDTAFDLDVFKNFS
T2 sequence (P36957 68-453 partner): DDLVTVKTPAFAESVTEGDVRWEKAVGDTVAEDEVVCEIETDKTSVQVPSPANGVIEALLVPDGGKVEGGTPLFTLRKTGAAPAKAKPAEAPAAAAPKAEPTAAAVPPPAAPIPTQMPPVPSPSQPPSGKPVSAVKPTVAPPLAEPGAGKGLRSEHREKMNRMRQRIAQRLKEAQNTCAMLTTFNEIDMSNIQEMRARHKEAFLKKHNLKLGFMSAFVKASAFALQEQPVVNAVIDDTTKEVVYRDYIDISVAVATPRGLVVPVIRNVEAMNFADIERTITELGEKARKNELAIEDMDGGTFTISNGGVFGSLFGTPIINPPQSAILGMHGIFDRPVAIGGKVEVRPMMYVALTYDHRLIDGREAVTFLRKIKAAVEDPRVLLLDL
T2 sequence (P09622 36-509 partner): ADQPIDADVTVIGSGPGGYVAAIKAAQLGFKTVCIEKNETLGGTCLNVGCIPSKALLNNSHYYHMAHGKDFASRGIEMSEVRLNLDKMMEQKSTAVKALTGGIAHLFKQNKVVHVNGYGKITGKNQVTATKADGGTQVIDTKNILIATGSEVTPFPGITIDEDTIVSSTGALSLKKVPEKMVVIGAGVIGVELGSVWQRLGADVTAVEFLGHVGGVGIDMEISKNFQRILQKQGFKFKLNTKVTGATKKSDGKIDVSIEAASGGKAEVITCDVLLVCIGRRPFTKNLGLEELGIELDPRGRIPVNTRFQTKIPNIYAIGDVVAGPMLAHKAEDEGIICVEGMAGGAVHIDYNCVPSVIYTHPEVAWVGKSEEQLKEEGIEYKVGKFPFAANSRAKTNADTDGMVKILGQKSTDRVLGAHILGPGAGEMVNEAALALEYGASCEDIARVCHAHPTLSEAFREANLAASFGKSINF
As to the kind of experiment: Overall OGDHc-h activity by formation of NADH. The format is biochemical.

Assay [4] deals with OGDHc-ec (Escherichia coli, UniProt P0AFG3). Description: Overall OGDHc-ec activity by formation of NADH. The format is biochemical.
Assay [5] addresses PDHc-ec (Escherichia coli, UniProt P0AFG8). Conditions: cofactor 0.2 mM in assay, no ThDP present for MeOThDP.
For assay [6], the target named is T3, E1p-ec (Escherichia coli, UniProt P0AFG8). Particulars: cofactor 0.2 mM.
Assay [7] deals with T3, E1p-ec.
Assay [8] has as its target T4, DXPS (Escherichia coli, UniProt P77488). Particulars: apo-DXPS with 0.10 mM cofactor.
Assay [9] deals with T4, DXPS.

For the molecule `COc1ncc(C[n+]2csc(CCOP(=O)(O)OP(=O)(O)O)c2C)c(N)n1` [MeOThDP, 2′-methoxythiamin diphosphate], the “pH of maximal kcat in the overall PDHc-h activity” value in assay [1] (E1p-h complexed with MeOThDP) was found to be 7.25. Also, the E1p-h specific activity in [2] (cofactor 0.2 and 0.5 mM, E1p-h alone, model reaction) is 0.017 ± 0.01 µmol min^−1 (mg of E1p-h)^−1. Further, in assay [2], the “E1p-h specific activity, percent of that with ThDP” value is listed as ~49%. Besides, the “overall OGDHc activity, percent of that with ThDP” value in assay [3] is 64%; in assay [4] (listed as MeOThP), 42% and 69%. Further, the “overall PDHc-ec activity, percent of that with ThDP” value in assay [5] is 8.6% and 11% and 5.9%. Moreover, the “E1p-ec specific activity, percent of that with ThDP” value in [6] is recorded as ~19%. Besides, the “percent of the E1p-ec fluorescence quenched” value in assay [7] was 5.8%. Also, in [8], the “DXPS activity, percent of that with ThDP” value is 9–14% and 8.8% and 14% and ~ 8.8% and ~ 14%. Further, the DXPS activity in assay [8] (37 °C, independent preparations) was 0.26 ± 0.04 µmol min^−1 (mg of DXPS)^−1 and 0.30 ± 0.01 µmol min^−1 (mg of DXPS)^−1. In addition, in assay [9], the “percent of quenching of the fluorescence of apo-DXPS” value is given as 27%. The Kd in assay [9] (read-out: Kd from quenching of the intrinsic fluorescence of DXPS, apo-DXPS, pH 8.0, 25 °C) amounted to 6.24 ± 0.23 µM.
With `Cc1ncc(C[n+]2csc(CCOP(=O)([O-])OP(=O)(O)O)c2C)c(N)n1` [ThDP, thiamin diphosphate], the “overall PDHc-h activity, percent of that with ThDP” value in assay [1] (cofactor 0.2 or 0.5 mM) is recorded as 100%. Further, the “E1p-h specific activity, percent of that with ThDP” value in assay [2] was 100%. Besides, the “overall OGDHc activity, percent of that with ThDP” value in assay [3] and in [4] was 100% throughout. In addition, the “overall PDHc-ec activity, percent of that with ThDP” value in assay [5] came to 100%. In assay [6], the “E1p-ec specific activity, percent of that with ThDP” value was found to be 100%. Moreover, in [6] (E1p-ec alone, model reaction), the E1p-ec specific activity is given as 0.36 ± 0.01 µmol min^−1 (mg of E1p-ec)^−1. Further, in [7], the “percent of the E1p-ec fluorescence quenched” value is on record as 9.9%. Moreover, the “DXPS activity, percent of that with ThDP” value in assay [8] stood at 100%. For the same molecule, the “percent of quenching of the fluorescence of apo-DXPS” value in assay [9] is on record as 35%.

Broadly, the Kd is a measure of binding affinity in units of concentration.
